Test results: paper PMC12428554, “Anti-HIV and Antimicrobial Activity of 7-Hydrazino-8-hydroxyquinoline-Based Aromatic Hydrazones” (International Journal of Molecular Sciences, 2025)
Converted amounts (≈) assume the structure as drawn. “And” between values parts separate entries of the source, which are not always exact repeats. Equal entries are not always repeated.

What was measured:
S. aureus ATCC 29213 = test: MIC by twofold serial dilution, S. aureus; format: cell-based; conditions: Staphylococcus aureus, ATCC29213, 24 h, 37 °C, read-out: MIC (Mean ± SE) S. aureus ATCC 29213
Experimental: Candida albicans ATCC 10231, Pseudomonas aeruginosa ATCC 27853, and Staphylococcus aureus ATCC 29213 strains were obtained from the American Type Culture Collection (ATCC; Rockville, MD, USA). The subculture and inoculum preparation were performed according to CLSI M27-A3 for C. albicans on yeast extract peptone dextrose (YPD) agar (HiMedia, Mumbai, Maharashtra, India) and RPMI-1640 medium (PanEco, Moscow, Russia) with MOPS (3-(N-morpholino) propanesulfonic acid, >99.5%; PanEco, Moscow, Russia), and M7-A11 for P. aeruginosa and S. aureus on Mueller-Hinton agar (MHA; HiMedia, Mumbai, Maharashtra, India) and Mueller-Hinton broth (MHB; HiMedia, Mumbai, Maharashtra, India). The stock cell concentrations of fungus and bacteria were 1 × 10^6 and 1 × 10^8 cells/mL, respectively. A working suspension of C. albicans (5.0 × 10^2 cells/mL) was prepared by two-step dilution of the broth concentration with the RPMI-1640 medium. Assay suspensions of P. aeruginosa and S. aureus (1.0 × 10^6 cells/mL) were prepared by diluting the concentration with Mueller-Hinton broth (HiMedia, Mumbai, Maharashtra, India). Amphotericin B (Sigma-Aldrich, Burlington, MA, USA) and gentamicin (Sigma-Aldrich, Burlington, MA, USA) were used as secondary pharmaceutical standards.
The minimum inhibitory concentration (MIC) was determined by the twofold serial dilution method, according to CLSI M27-A3 [33] and M07-A11 [34], in three independent experiments with four replicates each. Amphotericin B was used as a positive control for fungus; gentamicin was used as a positive control for bacteria. Stock solutions except gentamicin were prepared in DMSO at a concentration of 6400 μg/mL. Gentanicin was solubilized in sterile water at a concentration of 1280 μg/mL. Stock solutions of the tested substances were diluted to the final concentrations in the assay medium and 100 μL of each sample was added to the wells of 96-well plates, and then 100 μL of inoculum was added. Rows 11 and 12 were left for the negative control (medium with inoculum without the drug) and sterility control. The plates were incubated for 24 h at 35 °C in the case of C. albicans and at 37 °C in the case of P. aeruginosa and S. aureus. The tested concentration for gentamicin ranged from 0.0625 to 32 μg/mL; for other compounds, it ranged from 0.125 to 64 μg/mL. The MIC value was determined using spectrophotometer. The MIC was taken to be the lowest drug concentration that caused complete inhibition of microorganism growth compared to the control. The final MIC values were reported as the means with standard error (SE). Standard errors for µg/mL values less than 0.01 were excluded; standard errors for µM values less than 0.1 were excluded (Table 3).

[1] = test system: HIV-1 (subtype B) in MT-4 cells; test: Antigen p24 assay in HIV-infected MT-4 cells; format: cell-based; conditions: Human immunodeficiency virus 1, MT4; HIV-1 899A strain (subtype B), third day after infection
Experimental: The human MT-4 lymphoblastoid cells were cultured in RPMI 1640 medium supplemented with 10% fetal bovine serum (FBS) (HyClone, Logan, UT, USA), 2 mM L-glutamine, 50 U/mL penicillin, and 50 μg/mL streptomycin in a humidified atmosphere of 5% CO2 at 37 °C. The cells were re-seeded at a density of 3.0 × 10^5 cells/mL every three days. The HIV-1_899A strain (subtype B) was used from the collection of human immunodeficiency virus strains of the D.I. Ivanovsky Institute of Virology, N. F. Gamaleya National Research Center of Epidemiology and Microbiology, Ministry of Health, Moscow, Russia. The commercial drug Efavirenz (EFV), a non-nucleoside inhibitor of HIV reverse transcriptase, was used as a positive control. HIV-1 was added to the cells at 0.1 CCID50 (50% cell culture infectious dose). The cells, both infected and non-infected, were then incubated at 37 °C in a humidified atmosphere containing 5% CO2 for a 40 min period, after which the cells were washed twice in serum-free RPMI 1640 and plated into the wells of a 96-well plate. The tested compounds were then added to the cells at concentrations from 0.5 μM to 100 μM. The final ethanol concentration was 1% v/v. On the third day after infection, the culture fluid was collected for determining the amount of p24 antigen by enzyme immunoassay analysis using a commercial test system kit (Genscreen ULTRA HIV Ag-Ab, Bio-Rad, Hercules, CA, USA). Cell viability was measured by MTT assay.

Ku70–DNA complex = biological target: T1, Ku70–DNA complex (Homo sapiens, UniProt P12956); test: EMSA of Ku70/Ku80–DNA complex formation; format: binding; conditions: 12.8 nM Ku heterodimer, 4 nM labelled 40 mer DNA duplex, read-out: IC50, inhibition of Ku70–DNA complex formation
T1 construct: made in house; host or cells: Escherichia coli
Experimental: A bicistronic construct was used for the simultaneous expression of the Ku70 and Ku80 proteins in E. coli. Proteins were chromatographically purified with a 6His-tag at the N terminus of the Ku80 subunit. Recombinant Ku protein was produced in bacterial cell culture, purified, and its DNA-binding activity was characterized.
Isolation was performed using affinity chromatography on Ni^2+-NTA resin. The presence of Ku and impurities was monitored using SDS-PAGE and Western blot analysis. The testing of substances as potential inhibitors of the interaction of the Ku heterodimer with DNA was carried out using the gel inhibition assay.
The testing of substances as potential inhibitors of the interaction of the Ku heterodimer with DNA was carried out using the EMSA. […] The result was visualized by radioautography on a Typhoon FLA 9500 PhosphorImager (GE Healthcare Technologies, Chicago, IL, USA). The counting of radioautograms was performed using QuantityOne 4.6.6 software (Bio-Rad, Hercules, CA, USA). The calculation of IC50 parameters was carried out by Prism 8.0.1 software (GraphPad Software, San-Diego, CA, USA).

T1 sequence (P12956 whole entry): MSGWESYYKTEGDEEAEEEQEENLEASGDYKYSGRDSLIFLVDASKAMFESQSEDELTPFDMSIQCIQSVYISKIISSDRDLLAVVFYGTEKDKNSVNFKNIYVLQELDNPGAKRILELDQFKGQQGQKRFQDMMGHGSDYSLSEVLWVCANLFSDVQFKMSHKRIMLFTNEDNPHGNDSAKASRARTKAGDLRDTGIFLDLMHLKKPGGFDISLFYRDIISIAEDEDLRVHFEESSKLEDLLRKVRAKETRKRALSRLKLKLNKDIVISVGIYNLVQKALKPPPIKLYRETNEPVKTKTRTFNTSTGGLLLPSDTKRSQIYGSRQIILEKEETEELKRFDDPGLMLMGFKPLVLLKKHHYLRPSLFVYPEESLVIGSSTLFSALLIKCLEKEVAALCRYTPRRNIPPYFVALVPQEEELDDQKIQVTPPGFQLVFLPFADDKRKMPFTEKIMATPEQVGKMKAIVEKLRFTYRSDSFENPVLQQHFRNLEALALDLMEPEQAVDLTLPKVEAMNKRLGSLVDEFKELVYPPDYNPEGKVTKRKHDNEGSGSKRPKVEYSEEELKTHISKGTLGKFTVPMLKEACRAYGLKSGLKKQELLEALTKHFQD
T1 sequence (P13010 whole entry partner): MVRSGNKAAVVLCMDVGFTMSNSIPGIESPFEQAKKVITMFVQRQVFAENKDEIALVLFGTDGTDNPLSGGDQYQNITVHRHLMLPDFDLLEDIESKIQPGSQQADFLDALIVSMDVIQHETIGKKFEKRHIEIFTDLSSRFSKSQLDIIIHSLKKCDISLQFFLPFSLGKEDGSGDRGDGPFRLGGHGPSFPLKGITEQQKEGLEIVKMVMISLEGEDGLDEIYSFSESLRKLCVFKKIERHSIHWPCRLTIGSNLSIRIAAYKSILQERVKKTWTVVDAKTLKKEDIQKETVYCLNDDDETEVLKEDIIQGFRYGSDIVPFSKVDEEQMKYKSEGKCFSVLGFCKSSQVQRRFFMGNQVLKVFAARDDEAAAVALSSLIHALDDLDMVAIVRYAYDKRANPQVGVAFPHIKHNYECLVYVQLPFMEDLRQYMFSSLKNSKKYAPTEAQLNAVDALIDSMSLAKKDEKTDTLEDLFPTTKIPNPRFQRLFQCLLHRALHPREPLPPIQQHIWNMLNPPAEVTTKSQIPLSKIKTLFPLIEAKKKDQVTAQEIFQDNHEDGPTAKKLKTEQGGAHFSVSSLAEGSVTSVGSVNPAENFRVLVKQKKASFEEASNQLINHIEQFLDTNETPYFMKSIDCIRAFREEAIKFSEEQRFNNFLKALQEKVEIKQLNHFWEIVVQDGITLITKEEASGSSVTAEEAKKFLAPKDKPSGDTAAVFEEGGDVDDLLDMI

Compound | MIC (S. aureus ATCC 29213) | IC50 [1] [µM] | IC50 (Ku70–DNA complex) [µM]
O=[N+]([O-])c1cccc(/C=N/Nc2ccc3cccnc3c2O)c1 [III, 7-(3-Nitrobenzylidenohydrazinyl)-8-hydroxyquinoline] | 18 ± 4.8 µg/mL (≈ 58.4 µM) | 1.4 ± 0.33 | 60 ± 20
Oc1c(N/N=C/c2ccc(F)cc2)ccc2cccnc12 [VI, 7-(4-Fluorobenzylidenohydrazinyl)-8-hydroxyquinoline] | ≥ 64 µg/mL and ≥ 228 µM | < 0.5 | > 250
Oc1c(N/N=C/c2ccccc2)ccc2cccnc12 [Compound I, 7-(2-Benzylidenohydrazinyl)-8-hydroxyquinoline] | 52 µg/mL and 198 µM | 0.77 ± 0.03 | 40 ± 10
Oc1c(N/N=C/c2ccc(Br)c(Br)c2)ccc2cccnc12 [V, 7-(3,4-Dibromobenzylidenohydrazinyl)-8-hydroxyquinoline] | 36.3 ± 10.3 µg/mL (≈ 86.2 µM) | < 0.5 | 25 ± 8
COc1ccc(/C=N/Nc2ccc3cccnc3c2O)cc1 [IV, 7-(4-Methoxybenzylidenohydrazinyl)-8-hydroxyquinoline] | 64 µg/mL and 218 µM | 0.67 ± 0.05 | 80 ± 30
O=[N+]([O-])c1ccc(/C=N/Nc2ccc3cccnc3c2O)cc1 [II, 7-(4-Nitrobenzylidenohydrazinyl)-8-hydroxyquinoline] | 14 ± 1.9 µg/mL (≈ 45.4 µM) | 1.2 ± 0.08 | 50 ± 20
